Tests used:
[1] = Phase behavior / thermodynamic stability of deltamethrin polymorphs; format: physicochemical
Protocol: Thermodynamic stability of deltamethrin polymorphs was evaluated by the phase transformation behaviors and respective melting points. […] Rarely, transformation from Form II to Form I can be observed between crossed polarizers when spherulites of Form II are in contact with concomitant polycrystalline Form I (FIG. 4A, 4B). Form II fibers grow radially along their <010> direction. […] Upon phase transformation to Form I, the orientation of new grains become misaligned, resulting in a loss of observable birefringence. At room temperature the transformation can be observed by a moving growth front, which advances at a velocity of 0.3 μm/min.

[2] = test system: fruit flies (Drosophila melanogaster); experiment: Polymorph lethality, dust, residual exposure method, fruit flies; format: in vivo; settings: for average knockdown time / median knockdown time (KT50): 2 mg deltamethrin dust; for average knockdown time / median knockdown time (KT50) / longest survival (no individual survived more than) / onset of hyperactivity: female fruit flies; for longest survival (no individual survived more than) / onset of hyperactivity: 2 mg dust in 35 mm Petri dish
Protocol: (§1) The effect of deltamethrin polymorphs on fruit flies was determined by the residual exposure method. Bruck, D. J.; Bolda, M.; Tanigoshi, L.; Klick, J.; Kleiber, J.; DeFrancesco, J.; Gerdeman, B.; Spitler, H. Laboratory and field comparisons of insecticides to reduce infestation of Drosophila suzukii in berry crops. Pest. Manag. Sci. 2011, 67, 1375-1385. Lethality assays were performed for each powder sample as well as a control. Female fruit flies (Drosophila melanogaster) were temporarily anesthetized by CO2 exposure, then transferred to the 35 mm diameter petri dishes with deltamethrin dust. The dishes were covered with their mating top and the motion of the fruit flies was recorded to establish knockdown time (i.e., the time after which there was no further translational motion).
The lethalities of the two crystalline forms of deltamethrin were compared by exposing fruit flies (Drosophila melanogaster), a well-established model for pesticide development (Schneider, D. Using Drosophila as a Model Insect. Nat. Rev. Genet. 2000, 1, 218-226), to 2 mg of the respective dusts (containing […] deltamethrin Form I or Form II) dispersed evenly in 35 mm-diameter plastic Petri dishes. Each trial was performed in triplicate for each crystalline form, as well as a control.
The motions of fruit flies were monitored by a video camera. A custom designed video process programmer was used to record the onset of hyperactivity and to track the time required for the expiration of the flies, as measured by knockdown. […] (FIG. 5A). Both the onset of hyperactivity and death occurred much later for deltamethrin Form I-exposed flies.
(§2) Lethality was deduced by the standard measurement of knockdown time, defined as time when a fly is immobile in a supine or sideways position for at least one second (i.e., no translational motion). Lindquist, A. W.; Jones, H. A.; Madden, A. H. DDT Residual-type sprays as affected by light. J. Econ. Entomol. 1946, 39, 55-59. Paralyzed flies never recover.
FIGS. 5A and 5B depict the graphs of the lethality comparison of the two forms of deltamethrin, in terms of fly velocities and knockdown times. The corresponding average knockdown times and median knockdown times (KT50) are denoted. The median knockdown time (KT50) for each polymorph was determined from multiple trials using twenty female flies each. KT50 is defined as the time required to render 50 percent of the insects motionless. Kawada, H.; Dida, G. O.; Ohashi, K.; Komagata, O.; Kasai, S.; Tomita, T.; Sonye, G.; Maekawa, Y.; Mwatele, C.; Njenga, S. M.; Mwandawiro, C; Minakawa, N.; Takagi, M. Multimodal pyrethroid resistance in malaria vectors, Anopheles gambiae s.s., Anopheles arabiensis, and Anopheles funestus s.s. in Western Kenya. PLoS One 2011, 6, No. e22574; Limoee, M.; Ladonni, H.; Enayati, A. A.; Vatandoost, H.; Aboulhasani, M. Detection of pyrethroid resistance and cross resistance to DDT in seven field-collected strains of the German cockroach, Blattella germanica (L.) (Dictyoptera: Blattellidae). J Biol. Sci. 2006, 6, 382-387. The average knockdown times for 2 mg deltamethrin dusts with Form I and Form II were 123 minutes and 21 minutes, respectively. The KT50 values were 113 minutes and 20 minutes, respectively (FIG. 5B).

[3] = test system: yellow fever mosquitos (Aedes aegypti); experiment: Polymorph lethality, dust, residual exposure method, Aedes mosquitoes; format: in vivo; settings: for average knockdown time / median knockdown time (KT50): 2 mg deltamethrin dust
Protocol: as §1, with “on yellow fever mosquitos (Aedes aegypti)” for “on fruit flies”, “each dust” for “each powder”, “Female Aedes mosquitoes” for “Female fruit flies (Drosophila melanogaster)”, “the 90” for “the 35”, “the mosquitoes” for “the fruit flies”
The lethalities of the two crystalline forms of deltamethrin were compared by exposing yellow fever mosquitos (Aedes aegypti) to 2 mg of the respective dusts (containing […] deltamethrin Form I or Form II) dispersed evenly in 90 mm-diameter plastic Petri dishes. Each trial was performed in duplicate for each crystalline form, as well as a control.
The motions of mosquitoes were monitored by a video camera. A custom designed video process programmer was used to record the onset of hyperactivity and to track the time required for the expiration of the mosquitoes, as measured by knockdown. No Form I-exposed fly survived more than 300 minutes. […] (FIG. 6A). The death occurred much later for deltamethrin Form I-exposed mosquitoes.
as §2, with “mosquito” for “fly”
FIGS. 6A and 6B depict the graphs of the lethality comparison of the two forms of deltamethrin, in terms of mosquito velocities and knockdown times. The corresponding average knockdown times and median knockdown times (KT50) are denoted. The median knockdown time (KT50) for each polymorph was determined from multiple trials using twenty female mosquitoes each. KT50 is defined as the time required to render 50 percent of the insects motionless. Kawada, H.; Dida, G. O.; Ohashi, K.; Komagata, O.; Kasai, S.; Tomita, T.; Sonye, G.; Maekawa, Y.; Mwatele, C.; Njenga, S. M.; Mwandawiro, C; Minakawa, N.; Takagi, M. Multimodal pyrethroid resistance in malaria vectors, Anopheles gambiae s.s., Anopheles arabiensis, and Anopheles funestus s.s. in Western Kenya. PLoS One 2011, 6, No. e22574; Limoee, M.; Ladonni, H.; Enayati, A. A.; Vatandoost, H.; Aboulhasani, M. Detection of pyrethroid resistance and cross resistance to DDT in seven field-collected strains of the German cockroach, Blattella germanica (L.) (Dictyoptera: Blattellidae). J. Biol. Sci. 2006, 6, 382-387. The average knockdown times for 2 mg deltamethrin Form I and Form II dust were 202 minutes and 22 minutes, respectively. The KT50 values were 192 minutes and 21 minutes, respectively (FIG. 6B).

Drosophila melanogaster = experiment: Polymorph lethality, polyethylene glycol coated crystalline thin film; format: in vivo; settings: for average knockdown time / median knockdown time (KT50): polyethylene glycol coated crystalline film (2.2*2.2 cm^2)
Excerpt: FIGS. 7A-7B are a lethality comparison of the two forms of deltamethrin. FIG. 7A is a graph depicting the velocities of fruit flies exposed to crystalline films (2.2*2.2 cm^2) of deltamethrin Form I and II; FIG. 7B is a comparison of Drosophila melanogaster knockdown times on crystalline films (2.2*2.2 cm^2) of deltamethrin Form I and Form II.
The knockdown times for neat thin films are too short to allow a valid comparison of their lethality. Therefore, thin films of deltamethrin Form I and Form II were prepared and partially coated by nebulized polyethylene glycol, producing islands of inert material with a small fraction of the deltamethrin film exposed (FIG. 7B). […] The corresponding average knockdown times and median knockdown times (KT50) are denoted. The average knockdown times for polyethylene glycol coated deltamethrin Form I and Form II crystalline film were 385 minutes and 70 minutes, respectively. The KT50 values were 400 minutes and 61 minutes, respectively (FIG. 7B).
This confirms that Form I dust is transformed to Form II dust by the microwave heating treatment.

[4] = female Aedes aegypti, 2 mg dust in 90 mm Petri dish

| SMILES | transformation of Form II to Form I on storage ([1]; crystalline film confined between glass slides, 6 months at room temperature) | room temperature stability ranking ([1]; room temperature) | velocity of the growth front of the Form II to Form I transformation ([1]; room temperature, Form II spherulites in contact with polycrystalline Form I) [μm/min] | average knockdown time [2] [min] | median knockdown time (KT50) [2] [min] | lethality ranking ([2]; dust, fruit flies) | longest survival (no individual survived more than) [2] [min] | onset of hyperactivity [2] | average knockdown time ([3]; female Aedes aegypti) [min] | median knockdown time (KT50) ([3]; female Aedes aegypti) [min] | lethality ranking ([3]; dust, Aedes aegypti) | longest survival (no individual survived more than) [3, 4] [min] | onset of hyperactivity [3, 4] | average knockdown time (Drosophila melanogaster) [min] | median knockdown time (KT50) (Drosophila melanogaster) [min] | knockdown times, comparison of the forms (Drosophila melanogaster; thin films) |
| --- | --- | --- | --- | --- | --- | --- | --- | --- | --- | --- | --- | --- | --- | --- | --- | --- |
| CC1(C)[C@H](C(=O)O[C@H](C#N)c2cccc(Oc3ccccc3)c2)[C@@H]1C=C(Br)Br [Form II, (S)-cyano(3-phenoxyphenyl) methyl (1R,3R)-3-(2,2-dibromovinyl)-2,2-dimethylcyclopropane-1-carboxylate] | did not transform to Form I | Form I> Form II | 0.3 | 21 | 20 | more lethal than Form I | ≤ 40 | as soon as they were exposed | 22 | 21 | more lethal than Form I | ≤ 30 | as soon as they were exposed | 70 | 61 | shorter for Form II than for Form I |
| CC1(C)[C@H](C(=O)O[C@H](C#N)c2cccc(Oc3ccccc3)c2)[C@@H]1C=C(Br)Br [Form I, (S)-cyano(3-phenoxyphenyl) methyl (1R,3R)-3-(2,2-dibromovinyl)-2,2-dimethylcyclopropane-1-carboxylate, reference compound] | – | – | – | 123 | 113 | – | ≤ 210 | 40 min | 202 | 192 | – | ≤ 300 | – | 385 | 400 | – |
